In ChEMBL document CHEMBL5344407, “Histone deacetylases (HDACs) as the promising immunotherapeutic targets for hematologic cancer treatment” (Eur J Med Chem, 2023):

Columns and labels:
Histone deacetylase 1 [1] = target: T1, Histone deacetylase 1 (Homo sapiens, UniProt Q13547); assay: Inhibition of N-terminal GST-tagged full length human HDAC1 expressed in baculovirus system using FTS as substrate preincubated for 10 mins followed by substrate addition and measured after 2 hrs by fluorescence based analysis
T1 sequence (Q13547 whole entry): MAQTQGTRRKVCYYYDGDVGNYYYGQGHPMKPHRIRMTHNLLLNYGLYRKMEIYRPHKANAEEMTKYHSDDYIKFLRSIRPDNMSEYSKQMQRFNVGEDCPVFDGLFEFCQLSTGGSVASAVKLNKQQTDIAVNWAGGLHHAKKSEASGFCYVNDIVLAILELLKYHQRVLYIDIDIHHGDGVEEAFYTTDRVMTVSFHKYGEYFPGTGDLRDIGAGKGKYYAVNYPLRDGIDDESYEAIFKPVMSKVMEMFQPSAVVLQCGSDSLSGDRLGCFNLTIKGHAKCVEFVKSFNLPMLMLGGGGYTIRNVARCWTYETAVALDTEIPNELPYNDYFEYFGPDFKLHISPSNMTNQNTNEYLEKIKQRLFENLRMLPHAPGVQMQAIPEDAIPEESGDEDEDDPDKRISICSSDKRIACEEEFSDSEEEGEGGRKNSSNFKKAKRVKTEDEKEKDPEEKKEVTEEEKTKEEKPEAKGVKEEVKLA

[2] = target: T2, Protein deacetylase HDAC6 (Homo sapiens, UniProt Q9UBN7); assay: Inhibition of N-terminal GST-tagged full length human HDAC6 expressed in baculovirus system using FTS as substrate preincubated for 10 mins followed by substrate addition and measured after 2 hrs by fluorescence based analysis
T2 sequence (Q9UBN7 whole entry): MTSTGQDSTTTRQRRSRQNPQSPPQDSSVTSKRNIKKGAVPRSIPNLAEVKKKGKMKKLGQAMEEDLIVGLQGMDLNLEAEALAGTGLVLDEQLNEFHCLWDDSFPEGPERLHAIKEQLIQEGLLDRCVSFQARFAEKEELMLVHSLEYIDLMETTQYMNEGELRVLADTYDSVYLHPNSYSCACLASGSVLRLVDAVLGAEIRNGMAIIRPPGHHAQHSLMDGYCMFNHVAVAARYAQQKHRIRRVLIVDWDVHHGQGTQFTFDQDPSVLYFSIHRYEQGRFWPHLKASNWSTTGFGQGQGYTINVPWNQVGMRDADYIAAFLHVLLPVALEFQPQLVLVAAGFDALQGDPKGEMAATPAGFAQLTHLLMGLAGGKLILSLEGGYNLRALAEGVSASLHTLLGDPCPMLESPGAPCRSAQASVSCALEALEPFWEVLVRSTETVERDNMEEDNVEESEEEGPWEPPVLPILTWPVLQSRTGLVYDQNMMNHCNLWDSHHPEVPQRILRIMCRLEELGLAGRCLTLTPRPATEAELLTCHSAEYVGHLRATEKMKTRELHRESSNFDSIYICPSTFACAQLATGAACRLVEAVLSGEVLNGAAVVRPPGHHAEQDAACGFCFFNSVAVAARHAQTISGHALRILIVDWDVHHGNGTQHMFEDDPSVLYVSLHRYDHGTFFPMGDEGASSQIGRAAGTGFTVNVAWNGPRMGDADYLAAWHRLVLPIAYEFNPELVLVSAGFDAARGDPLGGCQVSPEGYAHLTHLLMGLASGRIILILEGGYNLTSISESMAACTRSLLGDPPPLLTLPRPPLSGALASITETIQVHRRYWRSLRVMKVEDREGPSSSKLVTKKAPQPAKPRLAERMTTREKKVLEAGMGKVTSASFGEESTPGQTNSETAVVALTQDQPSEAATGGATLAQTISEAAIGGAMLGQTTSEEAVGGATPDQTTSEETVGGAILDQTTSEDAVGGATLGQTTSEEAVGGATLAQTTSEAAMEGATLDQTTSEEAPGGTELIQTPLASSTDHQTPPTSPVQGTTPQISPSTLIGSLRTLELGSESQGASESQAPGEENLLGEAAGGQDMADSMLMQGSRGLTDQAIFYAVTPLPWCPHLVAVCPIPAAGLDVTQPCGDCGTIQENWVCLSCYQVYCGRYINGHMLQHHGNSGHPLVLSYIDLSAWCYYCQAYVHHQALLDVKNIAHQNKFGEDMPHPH

Histone deacetylase 3 [3] = target: T3, Histone deacetylase 3 (Homo sapiens, UniProt O15379); assay: Inhibition of N-terminal GST-tagged full length human HDAC3 expressed in baculovirus system using FTS as substrate preincubated for 10 mins followed by substrate addition and measured after 2 hrs by fluorescence based analysis
T3 sequence (O15379 whole entry): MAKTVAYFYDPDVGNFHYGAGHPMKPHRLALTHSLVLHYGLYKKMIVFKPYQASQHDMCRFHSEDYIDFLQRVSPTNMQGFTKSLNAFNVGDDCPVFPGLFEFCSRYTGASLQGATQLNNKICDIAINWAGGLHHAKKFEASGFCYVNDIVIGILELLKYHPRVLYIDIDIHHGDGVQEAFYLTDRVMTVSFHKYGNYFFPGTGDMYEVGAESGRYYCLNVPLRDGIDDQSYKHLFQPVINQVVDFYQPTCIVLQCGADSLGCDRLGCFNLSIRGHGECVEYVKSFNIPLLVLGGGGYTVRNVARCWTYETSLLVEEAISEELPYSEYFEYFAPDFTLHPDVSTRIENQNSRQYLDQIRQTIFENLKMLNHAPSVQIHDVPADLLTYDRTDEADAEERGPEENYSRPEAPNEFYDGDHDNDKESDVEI

Histone deacetylase 2 [4] = target: T4, Histone deacetylase 2 (Homo sapiens, UniProt Q92769); assay: Inhibition of N-terminal GST-tagged full length human HDAC2 expressed in baculovirus system using FTS as substrate preincubated for 10 mins followed by substrate addition and measured after 2 hrs by fluorescence based analysis
T4 sequence (Q92769 whole entry): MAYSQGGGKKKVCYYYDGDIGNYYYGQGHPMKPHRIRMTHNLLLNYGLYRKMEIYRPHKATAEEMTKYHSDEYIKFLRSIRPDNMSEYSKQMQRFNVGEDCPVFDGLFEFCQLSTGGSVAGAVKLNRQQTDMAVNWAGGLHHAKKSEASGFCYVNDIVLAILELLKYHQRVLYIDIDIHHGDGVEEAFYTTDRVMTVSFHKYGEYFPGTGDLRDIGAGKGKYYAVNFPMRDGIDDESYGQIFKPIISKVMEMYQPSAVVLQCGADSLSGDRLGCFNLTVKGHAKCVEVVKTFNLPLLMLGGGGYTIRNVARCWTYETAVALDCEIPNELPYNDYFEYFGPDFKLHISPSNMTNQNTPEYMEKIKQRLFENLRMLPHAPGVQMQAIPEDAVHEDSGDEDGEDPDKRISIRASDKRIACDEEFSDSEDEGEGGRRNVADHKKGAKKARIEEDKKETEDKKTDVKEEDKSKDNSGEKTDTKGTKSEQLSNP

Histone deacetylase 8 = target: T5, Histone deacetylase 8 (Homo sapiens, UniProt Q9BY41); assay: Inhibition of N-terminal GST-tagged full length human HDAC8 expressed in baculovirus system using FTS as substrate preincubated for 10 mins followed by substrate addition and measured after 2 hrs by fluorescence based analysis
T5 sequence (Q9BY41 whole entry): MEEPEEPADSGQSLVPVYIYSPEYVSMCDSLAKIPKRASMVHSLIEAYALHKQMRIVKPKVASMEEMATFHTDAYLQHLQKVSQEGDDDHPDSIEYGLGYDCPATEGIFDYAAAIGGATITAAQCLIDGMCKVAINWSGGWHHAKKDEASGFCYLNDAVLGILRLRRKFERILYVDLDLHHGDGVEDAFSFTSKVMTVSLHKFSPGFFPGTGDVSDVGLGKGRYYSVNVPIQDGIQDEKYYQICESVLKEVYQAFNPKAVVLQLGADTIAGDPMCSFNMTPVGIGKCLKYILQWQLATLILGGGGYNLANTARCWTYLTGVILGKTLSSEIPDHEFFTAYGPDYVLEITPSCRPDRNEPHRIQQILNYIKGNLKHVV

Histone deacetylase 1 [5] = target: T1, Histone deacetylase 1; assay: Inhibition of human recombinant HDAC1 using ZMAL (Z-(Ac)Lys-AMC) as fluorogenic substrate preincubated for 5 mins followed by substrate addition and measured after 1 hr by fluorescence based analysis
Histone deacetylase 2 [6] = target: T4, Histone deacetylase 2; assay: Inhibition of human full length recombinant HDAC2 expressed in baculovirus infected Sf9 cells using RHKKAc as substrate preincubated for 10 mins followed by substrate addition and measured after 2 hrs by fluorescence based analysis
Histone deacetylase 3 [7] = target: T3, Histone deacetylase 3; assay: Inhibition of recombinant full length human HDAC3 expressed in insect Sf9 cells
Histone deacetylase 11 = target: T6, Histone deacetylase 11 (Homo sapiens, UniProt Q96DB2); assay: Inhibition of HDAC11 (unknown origin)
T6 sequence (Q96DB2 whole entry): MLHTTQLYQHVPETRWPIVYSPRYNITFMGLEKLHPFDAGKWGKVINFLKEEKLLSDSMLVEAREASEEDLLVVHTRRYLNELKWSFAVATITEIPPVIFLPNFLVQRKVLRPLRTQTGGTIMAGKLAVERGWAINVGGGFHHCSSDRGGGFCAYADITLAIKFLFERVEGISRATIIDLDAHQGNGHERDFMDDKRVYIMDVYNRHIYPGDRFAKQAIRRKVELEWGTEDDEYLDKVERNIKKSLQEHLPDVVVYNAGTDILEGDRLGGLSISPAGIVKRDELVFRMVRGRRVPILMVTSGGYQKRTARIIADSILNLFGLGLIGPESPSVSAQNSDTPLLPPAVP

[8] = target: T7, Polyamine deacetylase HDAC10 (Homo sapiens, UniProt Q969S8); assay: Inhibition of HDAC10 (unknown origin)
T7 sequence (Q969S8 whole entry): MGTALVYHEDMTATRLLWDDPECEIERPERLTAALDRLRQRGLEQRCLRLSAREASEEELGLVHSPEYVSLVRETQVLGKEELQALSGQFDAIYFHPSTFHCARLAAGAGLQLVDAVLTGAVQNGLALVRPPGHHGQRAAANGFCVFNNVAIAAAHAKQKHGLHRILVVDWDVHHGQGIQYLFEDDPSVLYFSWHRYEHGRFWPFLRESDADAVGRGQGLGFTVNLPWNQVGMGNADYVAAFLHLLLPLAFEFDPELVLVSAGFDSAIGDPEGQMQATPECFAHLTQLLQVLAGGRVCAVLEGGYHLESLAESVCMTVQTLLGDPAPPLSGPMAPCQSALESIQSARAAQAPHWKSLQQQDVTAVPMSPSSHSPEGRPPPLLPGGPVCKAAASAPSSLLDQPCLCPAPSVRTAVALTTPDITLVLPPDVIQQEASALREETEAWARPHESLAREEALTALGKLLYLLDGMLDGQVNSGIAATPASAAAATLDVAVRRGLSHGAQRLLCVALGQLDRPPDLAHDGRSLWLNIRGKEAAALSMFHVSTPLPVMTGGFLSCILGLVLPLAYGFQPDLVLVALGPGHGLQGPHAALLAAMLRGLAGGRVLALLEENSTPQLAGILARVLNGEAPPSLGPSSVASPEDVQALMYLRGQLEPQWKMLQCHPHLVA

## O=C(CCCCCCC(=O)N/N=C/c1ccc(N(c2ccccc2)c2ccccc2)cc1)NO
Histone deacetylase 1 [1]
  IC50: 8.35 nM
[2]
  IC50: 0.4 nM
Histone deacetylase 3 [3]
  IC50: 51.6 nM
Histone deacetylase 2 [4]
  IC50: 15.4 nM
Histone deacetylase 8
  IC50: 1430 nM

## CC(C)[C@H](N)C(=O)SCC/C=C/[C@@H]1CC(=O)NCc2nc(cs2)C(=O)NC(C)(C)C(=O)N[C@@H](C(C)C)C(=O)O1 [BOCODEPSIN BESYLATE]
Histone deacetylase 1 [5]
  IC50: 1.2 nM
Histone deacetylase 2 [6]
  IC50: 2.4 nM
Histone deacetylase 3 [7]
  IC50: 2 nM

## Nc1cc(F)ccc1NC(=O)c1ccc(CNC(=O)/C=C/c2cccnc2)cc1 [TUCIDINOSTAT]
Histone deacetylase 11
  IC50: 432 nM
[8]
  IC50: 78 nM
